Assay type in all cases: in vivo
Assay [1] relates to Cowpea Aphid (Aphis craccivora). Description: Cowpea aphid spray test on potted cowpea plants. The conditions noted are these: sprayed cowpea plants, population reduction assessed after 24, 72 and 120 hours, read-out: mortality in comparison with untreated controls. The method, then:
B.3 Cowpea Aphid (Aphis craccivora)
The active compound is dissolved at the desired concentration in a mixture of 1:1 (vol:vol) distilled water:acetone. The test solution is prepared at the day of use.
Potted cowpea plants colonized with approximately 100-150 aphids of various stages were sprayed after the pest population has been recorded. Population reduction was assessed after 24, 72, and 120 hours.

In assay [2] the test system is Vetch Aphid (Megoura viciae). Kind of assay: Vetch aphid broad bean leaf disk microtiter test. The conditions noted are these: foliar, 120 h, sprayed broad bean leaf disks, 5 days, read-out: mortality in comparison with untreated controls. Here is the method: B.4 Vetch Aphid (Megoura viciae)
For evaluating control of vetch aphid (Megoura viciae) through contact or systemic means the test unit consisted of 24-well-microtiter plates containing broad bean leaf disks.
The compounds were formulated using a solution containing 75% v/v water and 25% v/v DMSO. Different concentrations of formulated compounds were sprayed onto the leaf disks at 2.5 μl, using a custom built micro atomizer, at two replications.
After application, the leaf disks were air-dried and 5-8 adult aphids placed on the leaf disks inside the microtiter plate wells. The aphids were then allowed to suck on the treated leaf disks and incubated at about 23±1° C. and about 50±5% relative humidity for 5 days. Aphid mortality and fecundity was then visually assessed.

Assay [3] deals with Rice Brown Plant Hopper (Nilaparvata lugens). Description: Rice brown plant hopper spray test on rice seedlings. The conditions noted are these: sprayed rice seedlings, adults, after 72 hours, read-out: mortality in comparison with untreated controls. Here is the method: B.9 Rice Brown Plant Hopper (Nilaparvata lugens)
Rice seedlings were cleaned and washed 24 hours before spraying. The active compounds were formulated in 50:50 acetone:water (vol:vol) and 0.1% vol/vol surfactant (EL 620) was added. Potted rice seedlings were sprayed with 5 ml test solution, air dried, placed in cages and inoculated with 10 adults. Treated rice plants were kept at about 28-29° C. and relative humidity of about 50-60%. Percent mortality was recorded after 72 hours.

In assay [4] the test system is Cotton Aphid (Aphis gossypii). Kind of assay: Cotton aphid cotyledon dip test. The conditions noted are these: 120 h, cotton cotyledons dipped, mortality counts after 5 days, read-out: mortality in comparison with untreated controls. The text has this: B.2 Cotton Aphid (Aphis gossypii)
The active compounds were formulated in 50:50 (vol:vol) acetone:water and 100 ppm Kinetica™ surfactant.
Cotton plants at the cotyledon stage (one plant per pot) were infested by placing a heavily infested leaf from the main colony on top of each cotyledon. The aphids were allowed to transfer to the host plant overnight, and the leaf used to transfer the aphids was removed. The cotyledons were dipped in the test solution and allowed to dry. After 5 days, mortality counts were made.

The test system of assay [5] is Silverleaf Whitefly (bemisia argentifolii). Description: Silverleaf whitefly spray test on cotton plants. The conditions noted are these: 72 h, sprayed cotton plants, whitefly adults, 3 days after treatment, read-out: mortality in comparison with untreated controls. From the text:
B.5 Silverleaf Whitefly (bemisia argentifolii)
(§1) The active compounds were formulated in cyclohexanone as a 10,000 ppm solution supplied in tubes. The tubes were inserted into an automated electrostatic sprayer equipped with an atomizing nozzle and they served as stock solutions for which lower dilutions were made in 50% acetone:50% water (v/v). A nonionic surfactant (Kinetic®) was included in the solution at a volume of 0.01% (v/v).
Cotton plants at the cotyledon stage (one plant per pot) were sprayed by an automated electrostatic plant sprayer equipped with an atomizing spray nozzle. The plants were dried in the sprayer fume hood and then removed from the sprayer. Each pot was placed into a plastic cup and about 10 to 12 whitefly adults (approximately 3-5 days old) were introduced. The insects were collected using an aspirator and a nontoxic Tygon® tubing connected to a barrier pipette tip. The tip, containing the collected insects, was then gently inserted into the soil containing the treated plant, allowing insects to crawl out of the tip to reach the foliage for feeding. Cups were covered with a reusable screened lid. […] Mortality was assessed 3 days after treatment, compared to untreated control plants.

The test system of assay [6] is Rice Green Leafhopper (Nephotettix virescens). Description: Rice green leafhopper spray test on rice seedlings. The conditions noted are these: sprayed rice seedlings, adults, after 72 hours, read-out: mortality in comparison with untreated controls. Here is the method:
B.8 Rice Green Leafhopper (Nephotettix virescens)
Rice seedlings were cleaned and washed 24 hours before spraying. The active compounds were formulated in 50:50 acetone:water (vol:vol), and 0.1% vol/vol surfactant (EL 620) was added. Potted rice seedlings were sprayed with 5 ml test solution, air dried, placed in cages and inoculated with 10 adults. Treated rice plants were kept at about 28-29° C. and relative humidity of about 50-60%. Percent mortality was recorded after 72 hours.

Assay [7] deals with Orchid Thrips (dichromothrips corbetti). Description: Orchid thrips floral-immersion test. The conditions noted are these: dipped orchid flowers, adult thrips, 72 hours after treatment, read-out: mortality in comparison with untreated controls. Here is the method: B.7 Orchid Thrips (dichromothrips corbetti)
Dichromothrips corbetti adults used for bioassay were obtained from a colony maintained continuously under laboratory conditions. For testing purposes, the test compound is diluted in a 1:1 mixture of acetone:water (vol:vol), plus 0.01% vol/vol Alkamuls® EL 620 surfactant.
Thrips potency of each compound was evaluated by using a floral-immersion technique. Plastic petri dishes were used as test arenas. All petals of individual, intact orchid flowers were dipped into treatment solution and allowed to dry. Treated flowers were placed into individual petri dishes along with about 20 adult thrips. The petri dishes were then covered with lids. All test arenas were held under continuous light and a temperature of about 28° C. for duration of the assay. After 3 days, the numbers of live thrips were counted on each flower, and along inner walls of each petri dish. The percentmortality was recorded 72 hours after treatment.

Assay [8] concerns Boll Weevil (Anthonomus grandis). Kind of assay: Boll weevil insect diet microtiter test. The conditions noted are these: 120 h, sprayed onto insect diet with eggs, egg and larval mortality after 5 days, read-out: mortality in comparison with untreated controls. The method, then:
B.6 Boll Weevil (Anthonomus grandis)
For evaluating control of boll weevil (Anthonomus grandis) the test unit consisted of 24-well-microtiter plates containing an insect diet and 20-30 A. grandis eggs.
The compounds were formulated using a solution containing 75% v/v water and 25% v/v DMSO. Different concentrations of formulated compounds were sprayed onto the insect diet at 20 μl, using a custom built micro atomizer, at two replications.
After application, microtiter plates were incubated at about 23±1° C. and about 50±5% relative humidity for 5 days. Egg and larval mortality was then visually assessed.

The test system of assay [9] is Green Peach Aphid (Myzus persicae). Kind of assay: Green peach aphid foliar spray test on bell pepper. The conditions noted are these: 120 h, sprayed bell pepper plants, aphid mortality after 5 days, read-out: mortality in comparison with untreated controls.
Description: B.1 Green Peach Aphid (Myzus persicae)
as §1
Bell pepper plants at the first true-leaf stage were infested prior to treatment by placing heavily infested leaves from the main colony on top of the treatment plants. Aphids were allowed to transfer overnight to accomplish an infestation of 30-50 aphids per plant and the host leaves were removed. The infested plants were then sprayed by an automated electrostatic plant sprayer equipped with an atomizing spray nozzle. The plants were dried in the sprayer fume hood, removed, and then maintained in a growth room under fluorescent lighting in a 24-hr photoperiod at about 25° C. and about 20-40% relative humidity. Aphid mortality on the treated plants, relative to mortality on untreated control plants, was determined after 5 days.

A word on the mortality: it is the percentage killed. With `CSc1nc2cccn(Cc3ccc(Cl)nc3)c-2n1` [E1.4, 4-[(6-chloro-3-pyridyl)methyl]-2-methylsulfanyl-imidazo[4,5-b]pyridine], the mortality at 500 ppm in assay [1] is no less than 75%. The mortality at 800 ppm in [2] was no less than 75%.

Turning to `FC(F)(F)c1nc2cccn(Cc3ccc(Cl)nc3)c-2n1` [E1.15, 4-[(6-chloro-3-pyridyl)methyl]-2-(trifluoromethyl)imidazo[4,5-b]pyridine], the mortality at 500 ppm in [1], in [3], in assay [5], in assay [6] and in assay [7] was no less than 75% throughout. Besides, the mortality at 300 ppm in [4] is no less than 75%. Further, the mortality at 800 ppm in assay [2] was no less than 75%.

On to `Clc1ccc(Cn2cccc3nc(Cl)nc2-3)cn1` [E1.8, 2-chloro-4-[(6-chloro-3-pyridyl)methyl]imidazo[4,5-b]pyridine], for which the mortality at 500 ppm in assay [1], in assay [3], in assay [5], in assay [6] and in [7] was no less than 75% throughout. In [8], the mortality at 2500 ppm was greater than 75%. Besides, the mortality at 300 ppm in assay [4] and in assay [9] was no less than 75% each time. Besides, the mortality at 800 ppm in assay [2] was no less than 75%.

(Values after patent publication US9422280B2, “N-substituted hetero-bicyclic compounds and derivatives for combating animal pests II” (BASF SE, priority 2012, dated 2016).)
